The source of these data is paper PMC3306499 (ACS Chemical Biology, 2012).

Structures can show the parent of a compound that is named as a salt. Where two headings read alike, the source gives them in different places.

A word on the IC50: it is the concentration that inhibits the measured activity by half.

Assay [1] concerns the target human A3G (APOBEC3G) (Homo sapiens, UniProt Q9HC16). Briefly: fluorescence-based ssDNA cytosine deaminase assay, A3G. The class given is biochemical.
Assay [2] concerns the target human A3A (APOBEC3A) (Homo sapiens, UniProt P31941). Put plainly: fluorescence-based ssDNA cytosine deaminase assay, A3A. The class given is biochemical.
The target in assay [3] is E. coli uracil DNA glycosylase (UDG) (Escherichia coli, UniProt P12295). Put plainly: UDG assay. The class given is biochemical.
In assay [4] the target is HIV RNase H. Conditions: read-out: IC50 Values RNase H, cited from earlier work.
For assay [5], the target named is HIV-1 RNase H (Human immunodeficiency virus type 1 group M subtype B, UniProt P04585). Briefly: HIV-1 RNase H inhibition assay. It counts as biochemical.
Assay [6] deals with A3G-ssDNA complex (Homo sapiens, UniProt Q9HC16). Briefly: EMSA of A3G-ssDNA complex formation. The class given is binding. Conditions: 0.64 μM A3G, 0.08 μM ssDNA, 50 μM compound, dose response 2, 5, 10 μM. A general note: Mobility shift assays separate free from complexed probe on a gel.
Assay [7] addresses HIV-1 integrase (Human immunodeficiency virus type 1 group M subtype B, UniProt P04585). Briefly: concerted HIV-1 integration assay. The class given is biochemical.
For assay [8], the system named is A3A-loop 6 (C321 loop of A3G swapped into A3A). Briefly: deaminase assay with A3A-loop 6 swap mutant. It counts as biochemical, human. Conditions: 50 μM compound.
[9] abbreviates: read-out: IC50 Values A3G, dose response, purified full-length A3G-mycHis.
Setting [10] is: read-out: IC50 Values A3A, dose response, purified A3A-mycHis.
Setting [11] is: read-out: IC50 Values UDG, no deaminase, uracil ssDNA substrate.
The mark [12] stands for this setting: read-out: IC50 Values RNase H, A3G inhibitors, this study.

Sequence of E. coli uracil DNA glycosylase (UDG) (P12295 whole entry): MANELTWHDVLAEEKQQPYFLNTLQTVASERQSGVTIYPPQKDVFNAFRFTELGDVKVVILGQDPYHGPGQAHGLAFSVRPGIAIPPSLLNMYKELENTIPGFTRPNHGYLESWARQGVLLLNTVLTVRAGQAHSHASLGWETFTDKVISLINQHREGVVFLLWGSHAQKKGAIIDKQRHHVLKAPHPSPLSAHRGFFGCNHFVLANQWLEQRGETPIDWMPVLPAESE
Sequence of human A3G (APOBEC3G) (Q9HC16 whole entry): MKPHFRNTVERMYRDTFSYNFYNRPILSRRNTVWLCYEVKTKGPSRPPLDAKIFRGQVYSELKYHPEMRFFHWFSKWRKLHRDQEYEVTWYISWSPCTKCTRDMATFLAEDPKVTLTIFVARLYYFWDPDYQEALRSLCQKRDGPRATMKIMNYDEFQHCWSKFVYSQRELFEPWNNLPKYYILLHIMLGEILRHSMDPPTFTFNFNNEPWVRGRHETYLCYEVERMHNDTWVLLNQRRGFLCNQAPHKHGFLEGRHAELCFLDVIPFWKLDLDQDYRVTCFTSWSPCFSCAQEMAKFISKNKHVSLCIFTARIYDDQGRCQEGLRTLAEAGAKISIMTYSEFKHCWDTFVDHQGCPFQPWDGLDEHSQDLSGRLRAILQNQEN
Sequence of human A3A (APOBEC3A) (P31941 whole entry): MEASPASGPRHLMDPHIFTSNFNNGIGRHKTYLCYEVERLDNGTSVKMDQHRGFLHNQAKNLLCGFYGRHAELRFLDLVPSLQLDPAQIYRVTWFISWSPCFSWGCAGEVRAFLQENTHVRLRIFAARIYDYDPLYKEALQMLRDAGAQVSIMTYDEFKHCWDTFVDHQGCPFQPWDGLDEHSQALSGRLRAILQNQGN
Sequence of A3G-ssDNA complex (Q9HC16 whole entry, one chain of several): as the sequence (Q9HC16 whole entry) above

With `CCCN1CCc2cc(O)cc3c2[C@H]1Cc1ccc(O)c(O)c1-3` [MN17, R(−)-2,10,11-Trihydroxy-N-propylnoraporphine hydrobromide hydrate], the IC50 in assay [1] (setting [9]) was 13 µM; in assay [2] (setting [10]), over 200 µM.

With `O=C(O)Cc1ccc(O)c(O)c1` [MN12, 3,4-Dihydroxyphenylacetic acid], the IC50 is 19 µM in assay [1], over 200 µM in assay [2] and over 200 µM in assay [3].

As to `C[C@@](Cc1ccc(O)c(O)c1)(NN)C(=O)O` [MN9, S-(−)-Carbidopa], the IC50 is 5.3 µM in assay [1] and over 200 µM in assay [2].

Regarding `NC(Cc1cc(O)c(O)cc1O)C(=O)O` (racemic) [MN23, 6-Hydroxy-DL-DOPA], the “inhibition of A3G catalytic activity (in words)” value in assay [1] is listed as “inhibit A3G catalytic activity”. Besides, the figures for the IC50 in assay [1] (setting [9]) and in assay [3] (setting [11]) were 4 µM and over 200 µM, respectively. The “inhibition of A3A (in words)” value in assay [2] is reported as “inhibit A3A”.

As to `Oc1ccc(Cn2cc[nH]c2=S)cc1` [MN22, 1-(4-Hydroxybenzyl)imidazole-2-thio], the IC50 in assay [2] (setting [10]) and in assay [3] (setting [11]) was over 200 µM throughout.

On to `O=C(O)c1ccc(-c2cccc(/C=N/NC(=O)c3cc(O)c(O)c(O)c3)c2)cc1` [BHMP-07, reference compound], for which the IC50 was 13 µM in assay [1] (setting [9]) and 0.1 µM in assay [4] (published value).

Take `CC(N)(Cc1ccc(O)c(O)c1)C(=O)O` (racemic) [MN28, (±)–3-(3,4-Dihydroxyphenyl)-2-methyl-DL-alanine]: the IC50 in assay [1] (setting [9]) is 13 µM; in assay [5] (setting [12]), over 25 µM; in assay [2] (setting [10]) it was over 200 µM; in assay [3] (setting [11]), over 200 µM.

Consider `Oc1ccc(O)cc1` [MN21, Hydroquinone], for which, in assay [2], the half-maximal inhibitory concentration (IC50) is over 200 µM.

For “R(−)-N-Allylnorapomorphine hydrobromide [MN11]”, the IC50 in assay [1] (setting [9]) was 2.9 µM; in assay [2] (setting [10]), over 200 µM.

Take `Oc1cc2c(cc1O)C(c1ccccc1)CNCC2` (racemic) [MN15, (±)-SKF-38393 hydrochloride]: the IC50 in assay [1] (setting [9]) is 27 µM; in assay [2] (setting [10]), over 200 µM; in assay [3] (setting [11]), over 200 µM.

In the case of `Cc1nc(N=Nc2cc(S(=O)(=O)O)c3cc([N+](=O)[O-])cc(S(=O)(=O)O)c3c2)c(COP(=O)(O)O)c(C=O)c1O` [MN33, PPNDS tetrasodium], the values for the IC50 in assay [1] (setting [9]) and in assay [2] (setting [10]) were 5.6 µM and 3.3 µM, respectively.

Take `NC1CCc2cc(O)c(O)cc2C1` (racemic) [MN13, (±)-2-Amino-6,7-dihydroxy-1,2,3,4-tetrahydronaphthalene hydrobromide]: the IC50 in assay [1] (setting [9]) was 0.7 µM; in assay [5] (setting [12]), over 25 µM; in assay [2] (setting [10]), over 200 µM; in assay [3] (setting [11]), over 200 µM.

Regarding `CN=c1nc(-c2ccccc2)n(-c2ccccc2)s1` [MN34, SCH-202676 hydrobromide], the IC50 is 29 µM in assay [1] (setting [9]), 310 µM in assay [2] (setting [10]) and over 200 µM in assay [3] (setting [11]).

For `COc1ccc2ccccc2c1/C=N/NC(=O)c1ccc(O)c(O)c1` [KMMP-05 (DHBNH), reference compound], the half-inhibitory concentration (IC50) is over 100 µM in assay [1] (setting [9]) and 0.5 µM in assay [4] (published value).

As for `CC(=O)NCCc1ccc(O)c(O)c1` [MN3, N-Acetyldopamine monohydrate], the IC50 in assay [1] (setting [9]) is 0.45 µM; in assay [2] (setting [10]), over 200 µM.

As to `O=C(/C=C/c1ccc(O)c(O)c1)O[C@@H]1C[C@](O)(C(=O)O)C[C@@H](O)[C@H]1O` [Chlorogenic acid, reference compound], in assay [1], the IC50 was over 100 µM and the “inhibition of A3G catalytic activity (in words)” value is listed as “no effect”.

Turning to `O=C(O)[C@H](O)[C@@H](O)C(=O)O` [L-Tartaric Acid, reference compound], in assay [1], the IC50 is over 100 µM and the “inhibition of A3G catalytic activity (in words)” value is reported as “no effect”.

In the case of Manicol [reference compound], the IC50 is over 100 µM in assay [1] (setting [9]) and 0.6 µM in assay [4] (published value).

For the compound `CN[C@@H](C)[C@H](O)c1ccccc1` [MN25, (1R,2S)-(−)-Ephedrine], the figures for the IC50 in assay [1] (setting [9]) and in assay [2] (setting [10]) were 1.3 µM and 54 µM, respectively.

Turning to `OC[C@H]1O[C@H]([S-])[C@H](O)[C@@H](O)[C@@H]1O.[Au+]` [MN26, Aurothioglucose hydrate], the half-inhibitory concentration (IC50) is 0.36 µM in assay [1] (setting [9]), over 200 µM in assay [2] (setting [10]) and over 200 µM in assay [3] (setting [11]).

Regarding `CC(C)c1ccc(O)c(=O)c(O)c1` [β-Thujaplicinol, reference compound], the IC50 was over 100 µM in assay [1] and 0.21 µM in assay [4] (published value).

Compound `O=C(O)C1=CC(=C(c2ccc(O)c(C(=O)O)c2)c2ccc(O)c(C(=O)O)c2)C=CC1=O` [MN1, Aurintricarboxylic acid] returned an IC50 in assay [1] of 0.49 µM. Also, in assay [3], the IC50 is 15 µM and the “inhibition of UDG activity (in words)” value is on record as “blocked UDG activity”.

Consider `O=C(O)[C@]1(O)C[C@@H](O)[C@@H](O)[C@H](O)C1` [Quinic Acid, reference compound], for which, in assay [1], the 50% inhibitory concentration (IC50) is over 100 µM and the “inhibition of A3G catalytic activity (in words)” value is on record as “no effect”.

For `Br.Oc1ccc(C2CNCc3sccc32)cc1O` (stereo not shown) [MN35, SKF-89626 hydrobromide], the “inhibition of A3G's ssDNA binding activity (A3G-ssDNA complex formation)” value in assay [6] was “only exceptions”. The concentration for half-maximal inhibition (IC50) was 1.3 µM in assay [1] (setting [9]), 2.2 µM in assay [5] (setting [12]), over 200 µM in assay [2] (setting [10]) and over 200 µM in assay [3] (setting [11]). Moreover, the “inhibitory activity against RNase H (in words)” value in assay [5] was “modest micromolar inhibitory activity”.

As for `O=c1cc(O)cc(/C=C/c2ccc(O)c(O)c2)o1` [MN24, Hispidin], the IC50 was 2 µM in assay [1], over 200 µM in assay [2], over 200 µM in assay [3] and over 25 µM in assay [7]. In addition, the “inhibitory activity against RNase H (in words)” value in assay [5] is reported as “modest micromolar inhibitory activity”.

With `CC(Cc1ccc(O)c(O)c1)C(C)Cc1ccc(O)c(O)c1` (stereo not shown) [MN31, Nordihydroguaiaretic acid], the IC50 is 8.8 µM in assay [1] (setting [9]) and over 200 µM in assay [2] (setting [10]).

In the case of `Oc1cc(O)cc(/C=C/c2ccc(O)c(O)c2)c1` [MN32, Piceatannol], in assay [8], the “inhibition of A3A-loop 6 deaminase activity” value was “very little inhibition”. Besides, the IC50 in assay [1] was 1.8 µM; in assay [5], 0.39 µM; in assay [2], 200 µM; in assay [3], over 200 µM; in assay [7], over 25 µM.

In the case of `CCCN1CCc2cccc3c2[C@H]1Cc1ccc(O)c(O)c1-3` [MN14, R(−)-Propylnorapomorphine hydrochloride], the IC50 in assay [1] (setting [9]) was 6.4 µM; in assay [2] (setting [10]), over 200 µM.

With `O=C(/C=C/c1ccc(O)c(O)c1)O[C@@H](C(=O)O)[C@@H](OC(=O)/C=C/c1ccc(O)c(O)c1)C(=O)O` [L-Chicoric Acid, reference compound], the “inhibition of A3G catalytic activity (in words)” value in assay [1] is “inhibited”. The half-inhibitory concentration (IC50) in assay [1] (setting [9]) was 2.8 µM. The “inhibition of A3A (in words)” value in assay [2] was “inhibited”.

Take `CC(=O)OCC1=C(C(=O)O)N2C(=O)[C@@H](NC(=O)CSc3ccncc3)[C@H]2SC1` [MN7, Cephapirin sodium salt]: the IC50 in assay [1] turned out to be 7.5 µM; in assay [2] it was 12 µM.

As for `O=C(O)c1cc[c]([Hg][Cl])cc1` [MN6, 4-Chloromercuribenzoic acid], the 50% inhibitory concentration (IC50) stood at 0.13 µM in assay [1] (setting [9]) and 0.26 µM in assay [2] (setting [10]).

As to `CN1CCc2cccc3c2[C@H]1Cc1ccc(O)c(O)c1-3` [MN2, R-(−)-Apomorphine hydrochloride hemihydrate], the IC50 in assay [1] was 1.3 µM; in assay [5] it was over 25 µM; in assay [2] it was over 200 µM; in assay [3], over 200 µM; in assay [7], over 25 µM.

Consider `O=C(O)/C=C/c1ccc(O)c(O)c1` [MN5, Caffeic acid], for which the IC50 is 85 µM in assay [1], over 200 µM in assay [2] and over 200 µM in assay [3].

In the case of `CN1CCc2cc(O)cc3c2[C@H]1Cc1ccc(O)c(O)c1-3` [MN16, R(−)-2,10,11-Trihydroxyaporphine hydrobromide], the IC50 was 1.7 µM in assay [1] (setting [9]), over 25 µM in assay [5] (setting [12]), over 200 µM in assay [2] (setting [10]) and over 200 µM in assay [3] (setting [11]).

Turning to `Oc1cc2c(cc1O)[C@H]1c3ccccc3CN[C@@H]1CC2` (racemic) [MN8, Dihydrexidine hydrochloride], the IC50 is 0.59 µM in assay [1]; over 25 µM in assay [5]; over 200 µM in assay [2]; over 200 µM in assay [3]; over 25 µM in assay [7].

Consider `O=c1c(O)c(-c2cc(O)c(O)c(O)c2)oc2cc(O)cc(O)c12` [MN27, Myricetin], for which, in assay [1], the IC50 stood at 3.4 µM and the “inhibition of A3G catalytic activity (in words)” value is recorded as “inhibit A3G catalytic activity”. In assay [2], the “inhibition of A3A (in words)” value is listed as “inhibit A3A”. The compound further came in with an IC50 in assay [3] of over 200 µM.

Take `O=C1C=CC(=O)C=C1` [MN4, p-Benzoquinone]: the 50% inhibitory concentration (IC50) was 0.17 µM in assay [1] (setting [9]) and over 200 µM in assay [2] (setting [10]).

Consider `O=C(NN=Cc1c(O)ccc2ccccc12)c1cc(O)c(O)c(O)c1` [KMMP-02 (THBNH), reference compound], for which the 50% inhibitory concentration (IC50) is over 100 µM in assay [1] (setting [9]) and 0.2 µM in assay [4] (ref M. Parniak, unpublished).

For the compound `O=C(/C=C/c1ccc(O)c(O)c1)OCCc1ccccc1` [CAPE, caffeic acid phenethyl ester, reference compound], in assay [1], the IC50 was over 100 µM and the “inhibition of A3G catalytic activity (in words)” value was “no significant effect”. Besides, the “inhibition of A3A (in words)” value in assay [2] is “no significant effect”.
